Experimental data as given in patent US11058642B2, “Tablets with improved friability” (TOWER LABORATORIES LTD, priority 2013, dated 2021).

Tests used:
Type in all cases: physicochemical
[1] = Tablet hardness (Schuleuniger-4M tablet hardness tester); settings: denture cleanser tablet (Table 1 formula, citric acid), additive 0.6%
Method: Tablets were compressed using ⅞″ round tooling on a Stokes F press. Compression force was adjusted to give the hardest possible tablet (limit set by capability of the press or by the appearance of tablet capping).
Hardness was measured using a Schuleuniger-4M tablet hardness tester.
Three (3) gram tablets were compressed using ⅞″ round tooling on a Stokes F press. Compression force was adjusted to give the hardest possible tablet (limit set by capability of the press or by appearance of tablet capping).
3.3 gram tablets were compressed using ⅞″ round tooling on a Stokes F press. As above, compression force was adjusted to give the hardest possible tablet (limit set by capability of the press or by appearance of tablet capping).
2.5 gram tablets were compressed using ⅞″ round tooling on a Stokes F press. As above, compression force was adjusted to give the hardest possible tablet (limit set by capability of the press or by appearance of tablet capping).

[2] = Tablet friability, modified USP-NF <1216> (Erweka TA, 10 tablets, 25 rpm; % unbroken tablets)
Method: Friability was measured in a manner similar to that described in the USP-NF, Chapter <1216>. The USP-NF method was modified in that the number of tablet used and the method of calculation were changed as indicated here. Ten (10) tablets were placed in an Erweka TA friability apparatus. The tablets were tumbled at 25 rpm for the indicated number of minutes. The percentage of unbroken tablets is reported.

[3] = Solubility in water of the tested materials; settings: neat material
Excerpt: In an attempt to understand what chemical properties of the tested materials are critical to improving friability, we looked at some of the physical properties of the tested materials.

Hardness [1]: 9.5 kp
Friability (% whole tablets) 2 min ([2]; denture cleanser tablet (Table 1 formula, citric acid), additive 0.6%, tumbled 2 min): 100 % whole tablets
Friability (% whole tablets) 4 min ([2]; denture cleanser tablet (Table 1 formula, citric acid), additive 0.6%, tumbled 4 min): 100 % whole tablets
Friability (% whole tablets) 6 min ([2]; denture cleanser tablet (Table 1 formula, citric acid), additive 0.6%, tumbled 6 min): 100 % whole tablets
Friability (% whole tablets) 8 min ([2]; denture cleanser tablet (Table 1 formula, citric acid), additive 0.6%, tumbled 8 min): 100 % whole tablets
Friability (% whole tablets) 10 min ([2]; denture cleanser tablet (Table 1 formula, citric acid), additive 0.6%, tumbled 10 min): 100 % whole tablets
Friability improvement ([2]; summary for denture cleanser tablet (Table 1 formula), material at 0.6%): Yes
Solubility in Water (w/w %) [3]: 100% w/w %
SMILES: OCC(O)CO [Glycerin]
